From patent US8535740B2, “Compositions from Nigella sativa” (priority 2002, dated 2013)

Tests used:
AMPK = AMPK activation (pT172-AMPK) in C2C12 myocytes; format: cell-based, mouse; conditions: 1 mM
Description: Cell culture—Mouse C2C12 myoblasts were obtained from American Type Culture Collection (Manassas, Va.), and were maintained in Dulbecco's modified Eagle's medium (DMEM) supplemented with 10% fetal bovine serum at 37° C. under a humidified atmosphere of 5% CO2.
C2C12 cells were seeded at an initial density of 6×10^4 cells/cm^2 in 24-well plates. For two days, the cells were allowed grow to reach confluence. Following confluence, the cells were forced to differentiate into myocytes by culturing in DMEM supplemented with 2% horse serum for seven days.
Treatment—On Day 8 to 10 post differentiation, C2C12 myocytes were incubated in serum-free DMEM plus 0.5% BSA (bovine serum albumin) for three hours. […]
Measuring activated AMPKa—pT^172-AMPK was quantified using the Biosource AMPK Immunoassay Kit (Camarillo, Calif.) without modification. Protein content of the cell lysates was determined with the Active Motif fluorescent protein assay reagent (Carlsbad Calif., Hoefelschweiger, B. K., Duerkop, A., and Wolfbeis, O. S. Novel type of general protein assay using a chromogenic and fluorogenic amine-reactive probe. Anal Biochem 2005, 344, 122-9). A Packard Fluorocount spectrofluorometer (Model #BF 10000, Meridan, Conn.) was used for protein determination and a MEL312e BIO-KINETICS READER (Bio-Tek Instruments, Winooski, Vt.) was used for quantification of pT^172-AMPK. […]

[1] = test system: IL-6 secretion in 3T3-L1 adipocytes; assay: IL-6 secretion in t10-CLA-stimulated 3T3-L1 adipocytes; format: cell-based, murine
Description: Treatment—Test materials were added four hours prior to the addition of t10-CLA at a concentration of 50 μM. Following overnight incubation, the supernatant media were sampled for determination of IL-6 and adiponectin. Interleukin-6 assay—The IL-6 secreted into the medium in response to […] stimulation was quantified using the Quantikine® Mouse IL-6 Immunoassay kit with no modifications (R&D Systems, Minneapolis, Minn.). […] All supernatant media samples were diluted 1:30 for quantification. Statistical Calculations and Interpretation—Test materials and were assayed in duplicate, while solvent controls were replicated eight times. IL-6 and adiponectin secretion were represented relative to the IL-6 and adiponectin secretion of the t10-CLA only controls as the IL-6 and adiponectin index and differences among the means were analyzed by the student's t-test assuming a five percent probability of a type I error (Excel; Microsoft, Redmond, Wash.).

[2] = test system: adiponectin secretion in 3T3-L1 adipocytes; assay: Adiponectin secretion in t10-CLA-stimulated 3T3-L1 adipocytes; format: cell-based, murine
Description: Treatment—Test materials were added four hours prior to the addition of t10-CLA at a concentration of 50 μM. Following overnight incubation, the supernatant media were sampled for determination of IL-6 and adiponectin. Adiponectin assay—The adiponectin secreted into the medium was quantified using the Mouse Adiponectin Quantikine® Immunoassay kit with no modifications (R&D Systems, Minneapolis, Minn.). […] Statistical Calculations and Interpretation—Test materials and were assayed in duplicate, while solvent controls were replicated eight times. IL-6 and adiponectin secretion were represented relative to the IL-6 and adiponectin secretion of the t10-CLA only controls as the IL-6 and adiponectin index and differences among the means were analyzed by the student's t-test assuming a five percent probability of a type I error (Excel; Microsoft, Redmond, Wash.).

Caco-2 monolayers = assay: t10-CLA-induced loss of transepithelial electrical resistance in Caco-2 monolayers; format: cell-based, human; conditions: 50 μM t10-CLA stimulus, positive control set to 100; each material at its tabulated concentration (TQ 5.0, NS8 0.11, NS9 0.99, NS10 0.012, NSSpent#2 0.0005 μg TQ equivalents/mL; Spent#1 5 μg/mL)
Description: Caco-2 Cells-The protocol for growing and differentiation the human Caco-2 colon andenocarcinoma cells was a modification of Protocol 3 as described by Yamashita et al. [[…]., and Furuyama, Y. (2002) New and better protocols for a short-term Caco-2 cell culture system, J Pharm Sci 91, 669-679]. Caco-2 Human Colon Adenocarcinoma cells were obtained from ATCC (Rockville, Md.; catalog #HTB-37) and maintained in a growth media: DMEM (Dulbecco's Modified Eagles Medium 1×) containing L-glutamine, glucose; Cellgro catalog #35-010CV with the following additions: (1) Penicillin (5,000 IU/mL)/Streptomycin (5,000 μg/mL) Cellgro catalog #30-001C1, (2) 10% FBS-Fetal Bovine Serum, Characterized; Hyclone catalog #SH30071.3, and (3) 1% NEAA-Non Essential Amino Acids; Cellgro catalog #25-025-CI; cells were cultured at 37 C in a humidified air-5% CO2 atmosphere in T175 flasks. Differentiation of Caco-2 cells to intestinal epithelial cells-BIOCOAT^R HTS Caco-2 Assay System kits (Becton Dickinson, N.J.; catalog #354801) consisting of 24-well fibrillar collagen coated inserts and feeder trays were used in all experiments and plated as follows. Media was removed from the T175 flasks and cells were washed with 10 mLs PBS (phosphate buffered saline 1× without Ca^++, without Mg^++; Cellgro #25-053-CI). PBS was removed and 5 mL of Trypsin/EDTA (1×, 0.25% Trypsin/2.21 mM EDTA in HBSS; Cellgro #25-053-CI) were added to the flask and the flask placed at 37 C until cells were visibly floating, approximately 3-5 minutes. Five mL of growth media were added to the flask to neutralize the trypsin. This solution was then transferred to a sterile 50 mL tube. Eight μL were sampled and placed in a hemocytometer for counting under a microscope. Five-hundred μL of cell solution were placed in the upper chamber of each insert so that the final density per well was at least 6.6×10^5 cells/cm^2. Thirty-five mL of growth media were then added to the feeder tray and plate incubated at 37 C with 5% CO2 and 100% humidity for 20-24 hours. […]

[3] = relative to t10-CLA only control (100), 50 μM t10-CLA, overnight, each material at its tabulated concentration

| SMILES | increase in pT172-AMPK relative to DMSO negative controls (AMPK; average over ten independent assays, 95% CI=1.26-2.21) [fold] | AMPK activation (AMPK; in assays run with N. sativa supercritical CO2 extracts) [fold] | increase in IL-6 secretion relative to controls ([1]; 50 μM) [fold] | IL-6 Index [1, 3] | reduction in adiponectin secretion relative to controls ([2]; 50 μM) [%] | Adiponectin Index [2, 3] | Relative Loss of TEER (Caco-2 monolayers) |
| --- | --- | --- | --- | --- | --- | --- | --- |
| NC(=O)c1ncn([C@@H]2O[C@H](CO)[C@@H](O)[C@H]2O)c1N [AICAR, 5-Aminoimidazole-4-carboxamide ribonucleoside] | 1.67 | 1.45 | – | – | – | – | – |
| CCCCC/C=C\C=C\CCCCCCCCC(=O)O [t10-CLA, trans-10, cis12-Conjugated Linoleic Acid] | – | – | 8 | 100 ± 11 | 65 | 100 ± 14 | 100 ± 5.81 |
